Source: patent US5126057A, “Disinfecting with N,N'-dihaloimidazolidin-4-ones” (Auburn Research Foundation, priority 1991, dated 1992)
Where two headings read alike, the source gives them in different places.

Key:
[1] = cited from earlier work
[2] = Stability of unhalogenated 2,2,5,5-tetramethylimidazolidin-4-one in water exposed to direct sunlight; assay type: physicochemical
Description: A solution containing 142 milligrams (1.00×10^-3 moles) of 2,2,5,5-tetramethylimidazolidin-4-one (Compound 6) in 1.0 liter of demand-free water buffered to pH 7.0 was prepared. 100 milliliter samples (1.00×10^-4 moles of Compound 6) of this solution were placed in each of five 100 milliliter volumetric flasks. The flasks were sealed with ground glass stoppers and placed in direct sunlight on the roof of the chemistry building at Auburn University during the period Jul. 6, 1989 to Aug. 2, 1989. No effort was made to control the temperature in this experiment; it was typically 33° C. during this period. […]
After allowing the reaction of Compound 6 with free chlorine to form a mixture of 1,3-dichloro-2,2,5,5-tetramethylimidazolidin-4-one (Compound 1) and 1-chloro-2,2,5,5-tetramethylimidazolidin-4-one (Compound 3) to proceed with stirring over a period of 1 hour, aliquots were analyzed for total and free chlorine using the DPD-FAS procedure mentioned in example 8. The combined chlorine concentration was assumed to be the difference between the determined total and free chlorine concentrations, and to represent the amounts of compounds 1 and 3 forming during the reaction.

[3] = Formation of N-halogenated imidazolidin-4-ones in situ (loss of free chlorine, DPD/FAS); assay type: physicochemical; conditions: for reaction with free chlorine: pH 7.0, 24°±1° C.
Description: An aqueous solution containing 50.0 milligrams (3.52×10^-4 moles) of 2,2,5,5-tetramethylimidazolidin-4-one synthesized as in example 2 in 50.0 milliliters of 0.05 molar sodium phosphate buffer (pH 7.0) was prepared. The buffer solution had been made halogen demand-free by chlorination with 3 milligrams per liter total chlorine from sodium hypochlorite followed by exposure to direct sunlight for two days until no titratable chlorine remained. A halogen demand-free solution of free chlorine buffered to pH 7.0 was prepared by bubbling chlorine gas into a flask containing the demand-free buffered water. Then 19 milliliters of the solution containing 1.31 grams per liter of free chlorine (7.02×10^-4 moles of positive halogen) was added to the solution containing the 2,2,5,5-tetramethylimidazolidin-4-one at ambient temperature (24°±1° C.) while stirring.
The reaction rate for formation of 1,3-dichloro-2,2,5,5-tetramethylimidazolidin-4-one and/or 1-chloro-2,2,5,5-tetramethylimidazolidin-4-one in situ was then followed kinetically by observing the loss of free chlorine concentration from the reaction mixture as a function of time. The concentration of free chlorine was monitored by withdrawing aliquots from the mixture periodically and titrating them by the DPD/FAS (N,N-diethyl-p-phenylenediamine/ferrous ammonium sulfate) method as described in "Standard Methods for the Examination of Water and Wastewater, 16th edition, American Public Health Association, Washington, D. C., 1985, pp. 306-309. The moles of free chlorine present in the reaction mixture declined from 7.02×10^-4 at the time of mixing to 4.45×10^-5 after only 48 seconds representing 94% reaction. Then further declination of free chlorine occurred to 3.63×10^-5 moles after 2.87 minutes, 3.48×10^-5 moles after 6.07 minutes, and 3.32×10^-5 moles after 114.6 minutes. Thus after 114.6 minutes 95% of the reaction had occurred. At this time 1.76×10^-5 additional moles of 2,2,5,5-tetramethylimidazolidin-4-one was added, and the concentration of free chlorine declined to zero by 140 minutes total elapsed time.

O=c1n(Cl)c(=O)n(Cl)c(=O)n1Cl [trichloroisocyanuric acid]
hydrolysis equilibrium constant ([1]; reported by G. D. Nelson, Kirk-Othmer 1979): 1.6×10^-4

CC1(C)NC(=O)C(C)(C)N1 [Compound 6, 2,2,5,5-tetramethylimidazolidin-4-one]
variation of combined chlorine concentration ([2]; 4 weeks direct sunlight, DFW pH 7.0, typically 33° C., then reacted with free chlorine): ≤ 6% | time for which stable in direct sunlight ([2]; DFW, pH 7.0, direct sunlight): at least 4 weeks

CC1(C)NC(=O)C(C)(C)N1 [2,2,5,5-tetramethylimidazolidin-4-one]
reaction with free chlorine ([3]; 48 seconds): 94% | reaction with free chlorine ([3]; 114.6 minutes): 95% | time for in situ formation of halogenated imidazolidin-4-ones ([3]; free chlorine added to pH 7.0 demand-free water): less than 1 minute

CC1(C)COC(=O)N1Cl [3-chloro-4,4-dimethyl-2-oxazolidinone]
hydrolysis equilibrium constant ([1]; reported by Williams, Elder and Worley, 1988): 2.3×10^-9
